Experimental data from patent publication US20220033432A1, “ANTI-HEPATITIS B VIRUS AGENT” (priority 2019, published 2022).
Where two headings read alike, the source gives them in different places.

Columns and labels:
[1] = system: HBV; test: Anti-HBV activity: intracellular HBV DNA by quantitative PCR in HepG2.2.15 cells; type: cell-based; settings: Hepatitis B virus, read-out: EC50 (50% effective concentration), anti-HBV activity
Experimental: Anti-HBV activity was evaluated by quantitative PCR for determining the amount of HBV DNA in cells on the seventh day after the addition of the agent, using the HepG2.2.15 cell line of HBV-producing cells obtained by introducing a gene having a length twice that of the HBV genome into the human liver cancer cell line HepG2. For PCR of HBV DNA, a forward primer (HBV-S190F; 5′-GCT CGT OTT ACA GGC GGG-3′: SEQ ID NO: 1) and a reverse primer (HBV-S703R; 5′-GAA CCA CTG AAC AAA TOG CAC TAG TA-3′: SEQ ID NO: 2) were used. PCR was performed by carrying out a reaction at 95° C. for 10 sec, 62° C. for 10 sec, and 72° C. for 30 sec for 35 cycles.
Specifically, HepG2.2.15 cells were seeded at a concentration of 1×10^5 cells/well. 24 hours later, the compounds of Example 1 and Comparative Example 1 were diluted to have a concentration of 0, 0.49, 0.97, 1.95, 3.90, 7.81, 15.6, 31.3, 62.5, 125, 250, 500, and 1000 nM, and added to the cells. After the cells were cultured for 7 days, each cytoplasmic compartment was collected, and DNA was purified by phenol-chloroform extraction. 20 ng of the purified DNA was used to measure the amount of intracellular HBV DNA by quantitative PCR.
The EC50 (50% effective concentration) was calculated from a graph showing the relationship between the concentration of the compound and anti-HBV activity.

[2] = Cytotoxicity test (WST-1) in HepG2 NTCP-myc cells; type: cell-based; settings: human, 7 days culture, read-out: CC50 (50% cytotoxic concentration)
Experimental: HepG2 NTCP-myc cells were seeded at a concentration of 2×10^4 cells/well. 24 hours later, the compound of Example 1 was diluted to have a concentration of 0, 0.49, 0.97, 1.95, 3.90, 7.81, 15.6, 31.3, 62.5, 125, 250, 500, and 1000 nM, and added to the cells. The HepG2 NTCP-myc cells were cultured for 7 days. After the culture, 10 μl of Premix WST-1 Cell Proliferation Assay System (TaKaRa) was added, and the cells were cultured at 37° C. for 2 hours. Thereafter, absorbance was determined at 450 nm using a microplate reader.
The CC50 (50% cytotoxic concentration) was calculated from a graph showing the relationship between the concentration of the compound and cytotoxicity.

[3] = 168 h, HepG2.2.15 cells, intracellular HBV DNA, day 7 after addition

| SMILES | EC50 [1, 3] [nM] | CC50 at 7 days [2] [nM] | EC50 ([1]; HepG2.2.15, 168 h) [nM] |
| --- | --- | --- | --- |
| OC[C@H]1O[C@@H](n2cnc3c(Cl)nc(Cl)nc32)[C@@H](F)[C@@H]1O [Comparative Example 1, 2,6-dichloro-9-((2R,3S,4R,5R)-3-fluoro-4-hydroxy-5-(hydroxymethyl)tetrahydrofuran-2-yl)-9H-purine, reference compound] | > 10000 | – | – |
| Nc1nc(Cl)c2ncn([C@@H]3O[C@H](CO)C(O)C3F)c2n1 (stereo partly drawn) [Example 1, 9-(2′-deoxy-2′-fluoro-β-D-arabinofuranos-1′-yl)-2-amino-6-chloropurine] | 11.8 | > 500000 | – |
| Nc1nc(F)c2ncn([C@@H]3O[C@H](CO)C(O)C3F)c2n1 (stereo partly drawn) [Example 2, 9-(2′-deoxy-2′-fluoro-β-D-arabinofuranos-1′-yl)-2-amino-6-fluoropurine] | 880 | 337000 | – |
| Nc1nc(I)c2ncn([C@@H]3O[C@H](CO)C(O)C3F)c2n1 (stereo partly drawn) [Example 3, 9-(2′-deoxy-2′-fluoro-β-D-arabinofuranos-1′-yl)-2-amino-6-] | 990 | > 500000 | – |
| Nc1nc(N)c2ncn([C@@H]3O[C@H](CO)C(O)C3F)c2n1 (stereo partly drawn) [Example 4, 9-(2′-deoxy-2′-fluoro-β-D-arabinofuranos-1′-yl)-2-amino-6-aminopurine] | – | > 500000 | 2020 |
| COc1nc(N)nc2c1ncn2[C@@H]1O[C@H](CO)C(O)C1F (stereo partly drawn) [Example 5, 9-(2′-deoxy-2′-fluoro-β-D-arabinofuranos-1′-yl)-2-amino-6-methoxypurine] | 1630 | > 500000 | – |
| N#Cc1nc(N)nc2c1ncn2[C@@H]1O[C@H](CO)C(O)C1F (stereo partly drawn) [Example 6, 9-(2′-deoxy-2′-fluoro-β-D-arabinofuranos-1′-yl)-2-amino-6-cyanopurine] | 930 | > 500000 | – |
